# Where two headings read alike, the source gives them in different places. Starred links: 1 amine or outer side, 2 acyl side, 3 side chain; linkers in the order of their positions; H or OH if unused. Non-standard residues stand in square brackets, D forms with d. Residues, ends and D or L forms follow the SMILES beside them. Groups on a side chain read outwards from the residue. *: point of attachment. C18 diacid = O=C(O)CCCCCCCCCCCCCCCCC(=O)*; γGlu = O=C(O)[C@H](CCC(=O)[*:2])N[*:1]; AEEA = NCCOCCOCC(=O)O; Aib = CC(C)(N)C(=O)O
# Key:
# [1] = Viscosity (Rheosense mVroc Viscometer); format: physicochemical; conditions: approximately 10 mg/mL peptide in 10 mM Tris + 3 mg/mL m-cresol at pH 8.0; 25° C.; shear rate 1934 s^−1
# Description: Viscosity of compounds of the present invention is measured in a Rheosense mVroc Viscometer with the following settings:
# (a) Syringe size: 500 μL syringe
# (b) Flow Rate: 100 μL/min flow rate
# (c) Average Temperature: 25° C.
# (d) Shear Rate: 1934 s^−1
# Dry powder (compound) is weighed out, dissolved in water as a cloudy precipitate, and titrated to approximately pH 8.0 with 1N NaOH. The solution is sonicated and swirled by hand until peptide is in solution. Samples are sterile filtered (0.22 μm PVDF filters). Samples are then analyzed by UV-Vis to assess stock solution concentrations. Solutions are diluted to final concentration using 3× m-cresol in 10 mM Tris pH 8.0 buffer to final concentrations of approximately 10 mg/mL peptide by weight in 10 mM Tris+3 mg/mL m-cresol at pH 8.0. Samples were filtered through 0.22 μm filters immediately prior to viscosity analysis. 25 μL of sample are removed to verify concentration by RP-HPLC before and after analysis.
# Water and buffer control samples are measured before and after each sample is analyzed. The instrument is washed with buffer (3×) in between analysis of each sample. The samples are loaded into individual syringes and analyzed. The first measurement is not included in the final calculation to allow for equilibration with the system. Samples are then analyzed in triplicate (n=3).
# The viscosity of Compounds 1-4 was measured essentially as described in this assay.
# Human Gcg-R = biological target: T1, Human Gcg-R (Homo sapiens, UniProt P47871); test: Functional hGcg-R assay (cAMP HTRF, HEK-293 clonal cell line); format: cell-based; conditions: for Emax: HEK293; for EC50: cAMP, 60 minute incubation, 0.25% FBS, 0.05% BSA, geometric mean, read-out: Human Gcg-R EC50, nM ± SEM, (n)
# T1 construct: expressed in transfected cells; host or cells: HEK-293 clonal cell line over-expressing the receptor
# T1 sequence (P47871 26-477): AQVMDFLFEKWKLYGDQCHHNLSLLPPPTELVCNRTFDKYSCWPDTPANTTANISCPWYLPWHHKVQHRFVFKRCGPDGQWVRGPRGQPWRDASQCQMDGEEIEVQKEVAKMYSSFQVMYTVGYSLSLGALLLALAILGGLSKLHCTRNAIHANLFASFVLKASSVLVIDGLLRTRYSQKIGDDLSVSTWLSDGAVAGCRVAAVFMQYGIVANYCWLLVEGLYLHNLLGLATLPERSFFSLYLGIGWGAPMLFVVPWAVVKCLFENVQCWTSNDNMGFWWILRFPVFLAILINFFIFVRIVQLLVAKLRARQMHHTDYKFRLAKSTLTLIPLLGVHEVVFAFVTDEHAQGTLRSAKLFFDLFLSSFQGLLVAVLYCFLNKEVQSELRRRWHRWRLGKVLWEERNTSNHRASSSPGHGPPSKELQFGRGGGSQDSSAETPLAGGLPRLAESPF
# Description: After a 60 minute incubation at room temperature, the resulting increase in intracellular cAMP (adenosine 3′,5′-cyclic monophosphate) is quantitatively determined using the CisBio cAMP Dynamic 2 HTRF Assay Kit (62AM4PEJ). cAMP levels within the cell are detected by adding the cAMP-d2 conjugate in cell lysis buffer (20 μl) followed by the antibody anti-cAMP-Eu^3+-Cryptate, also in cell lysis buffer (20 μl).
# A relative EC50 value and percent top (Emax) are derived by non-linear regression analysis using the percent maximal response vs. the concentration of peptide added, fitted to a four-parameter logistic equation (Genedata Screener®).
# Means for EC50 are expressed as Geometric means±standard error of the mean (SEM) with the number of replicates (n) indicated in parenthesis. Means for Emax are expressed as the arithmetic mean±standard error. ND signifies that agonist activity was not detected.
# rat GLP-1-R = biological target: T2, rat GLP-1-R (Rattus norvegicus, UniProt P32301); test: Functional activation of the rat GLP-1-R in insulinoma cell line INS1 832-3 (cAMP); format: cell-based
# T2 construct: stimulating cAMP production at the endogenous GLP-1 receptors; endogenous in cells; host or cells: INS1 832-3 rat insulinoma cells
# T2 sequence (P32301 22-463): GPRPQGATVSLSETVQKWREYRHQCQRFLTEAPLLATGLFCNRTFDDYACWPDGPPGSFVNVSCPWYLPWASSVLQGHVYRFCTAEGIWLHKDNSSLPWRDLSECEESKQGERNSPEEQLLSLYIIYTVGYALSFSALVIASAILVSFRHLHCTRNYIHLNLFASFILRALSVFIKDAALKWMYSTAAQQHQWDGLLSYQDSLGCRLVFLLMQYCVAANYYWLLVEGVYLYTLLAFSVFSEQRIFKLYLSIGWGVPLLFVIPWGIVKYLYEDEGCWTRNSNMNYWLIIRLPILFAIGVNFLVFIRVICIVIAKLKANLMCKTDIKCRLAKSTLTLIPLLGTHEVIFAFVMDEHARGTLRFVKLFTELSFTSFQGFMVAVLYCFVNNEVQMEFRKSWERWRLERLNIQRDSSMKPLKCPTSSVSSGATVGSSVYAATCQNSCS
# Description: Performance of the assay requires detachment of the cells from culture flasks using Enzyme Free Cell Stripper and pelleted by centrifugation at 1000 rpm for 5 minutes at room temperature. […] After 2 hours starvation, cells are treated with compound by adding 10 μl of 5× compound dilutions into the cell plates (n=2) and incubated in a 37° C., 5% CO2 incubator for 30 minutes.
# cAMP concentration is measured using a HTRF cAMP assay kit (Cisbio): cAMP-d2 conjugate in cell lysis buffer (20 μl) followed by the antibody anti-cAMP-Eu^3+-Cryptate, also in cell lysis buffer (20 μl), is added to the cells of the plate.
# The assay is performed with duplicated plates.
# [2] = Pharmacokinetics in cynomolgus monkeys; format: in vivo; conditions: Table 8: single SC 50 nmol/kg; for Cmax: read-out: Cmax
# Description: The compounds are administered by a single intravenous or subcutaneous dose of 50 nmole/kg or 250 nmole/kg.
# The plasma concentrations of compounds are determined by a LC/MS method. Briefly, a compound of the present invention is extracted from 100% monkey plasma (25 μl) using acetonitrile. Two distinct layers are formed upon centrifugation with the compound located in the liquid layer. An 80 μl aliquot of the supernatant was transferred to a 96-well plate, diluted with 150 μl of water and 25 μl of formic acid. The diluted sample (10 μl) was injected onto a Supelco Analytical Discovery BIO Wide Pore C5-3, 5 cm×1 mm, 3 um column. The column effluent is directed into a Thermo Q-Exactive mass spectrometer for detection and quantitation.
# DIO mice (C57BL/6) = test: Effects on energy expenditure in DIO mice (indirect calorimetry); format: in vivo, mouse; conditions: for Cumulative Heat (Kcal/kg lean mass/3 day): test article 15 nmol/kg, semaglutide 60 nmol/kg sc every three days
# Description: Seven to eight months old male DIO mice (C57BL/6) weighing 45-50 g are used in this study to assess the effect of compounds of the present invention on energy metabolism. Animals are individually housed in a temperature-controlled (24° C.) facility with a 12 hour light/dark cycle (lights on 22:00), and free access to food (TD95217)(Teklad) and water. After 2 weeks acclimation to the facility, mice are randomized to treatment groups (N=6/group) based on body weight so each group has similar starting mean body weight. Animals are placed in a PhenoMaster/LabMaster calorimeter (TSE Systems, Chesterfield, Mo.) for 8 days of acclimation.
# Heat and […] (RER) are measured by indirect calorimetry as described using an open-circuit calorimetry system. RER is the ratio of the volume of CO2 produced (VCO2) to the volume of O2 consumed (VO2). Heat is calculated with lean body weight considered. The energy expenditure is kcal/kg/3 day and expressed as mean±SEM of 6 mice per group. Statistical significance is assessed by two-way ANOVA followed by Tukey's multiple comparison test.
# hGcg-R = hGcg-R (Homo sapiens, UniProt P47871); test: Functional activation of hGcg-R in primary human hepatocytes (cAMP); format: cell-based; set-up: stimulating cAMP production at the endogenous Gcg receptors; endogenous in cells; host or cells: cryopreserved primary human hepatocytes
# Chain of hGcg-R (P47871 26-477): as the sequence (P47871 26-477) above
# Description: Primary human hepatocytes are used to determine functional activity of compounds on stimulating cAMP production at the endogenous Gcg receptors. Vials of human primary hepatocytes are frozen in a liquid nitrogen tank. Upon removal, vials are thawed immediately in a water bath having a temperature of 37° C. Cell suspension is then transferred to 50 ml CHRM (Gibco/Life Technologies cat#CM7000 Cryopreserved Hepatocyte Recovery Medium).
# The cell suspension is centrifuged at 1,000×g for 10 min. Cell pellets are resuspended in 5 ml of Plating Media after removing the CHRM by aspiration. The Plating Media is prepared by adding entire contents of CM3000 Supplement Packs to 500 ml Williams Media (Gibco/Life Technologies), followed by sterile filtration through a 0.22 μm membrane.
# The cell density is counted on hemocytometer, by adding 100 μl of cell suspension to 100 μl Trypan Blue (HyClone Trypan Blue 0.04%, catalog number SV30084.01). The cell suspension is further diluted in the Plating Media to the final cell density of 0.8×10^6 cells per ml. […] 65 ml of the cell suspension is then added to each well of the Collagen coated 96-well plate to final cell density 50,000 cells per well. The cell plate is incubated in a 37° C., 5% CO2 incubator for 3-4 hours.
# After 3-4 hours incubation, the media is aspirated and replaced with 100 ml Maintenance Media. The maintenance media is prepared by adding entire contents of CM4000 Supplement Packs to 500 ml Williams Media (Gibco/Life Technologies), followed by sterile filtration through a 0.22 μm membrane. The cell plate is returned to the 37° C., 5% CO2 incubator overnight in preparation for the cAMP assay.
# The cell plate is removed from the incubator and the media is removed by gentle aspiration without disturbing the cell monolayer.
# cAMP concentration is measured using a HTRF cAMP assay kit (Cisbio): cAMP-d2 conjugate in cell lysis buffer (40 μl) followed by the antibody anti-cAMP-Eu^3+-Cryptate, also in cell lysis buffer (40 μl), is added to the cells of the plate.
# [3] = male, cynomolgus monkey, plasma, sc, 50 nmol/kg, individual animals
# [4] = male, cynomolgus monkey, plasma, sc, 50 nmol/kg, mean
smiles,measurement,setting,value
CC(C)C[C@H](NC(=O)[C@H](CC(C)C)NC(=O)[C@H](Cc1c[nH]c2ccccc12)NC(=O)[C@H](CCC(=O)O)NC(=O)[C@@H](NC(=O)[C@H](Cc1ccccc1)NC(=O)[C@H](CCC(=O)O)NC(=O)[C@H](CCCCNC(=O)COCCOCCNC(=O)COCCOCCNC(=O)CC[C@H](NC(=O)CCCCCCCCCCCCCCCCC(=O)O)C(=O)O)NC(=O)[C@H](C)NC(=O)[C@H](CCCCN)NC(=O)[C@H](CCCCN)NC(=O)[C@H](CCC(=O)O)NC(=O)[C@H](CC(=O)O)NC(=O)[C@H](CC(C)C)NC(=O)[C@H](Cc1ccc(O)cc1)NC(=O)[C@H](CCCCN)NC(=O)[C@H](CO)NC(=O)[C@H](Cc1ccc(O)cc1)NC(=O)[C@H](CC(=O)O)NC(=O)[C@H](CO)NC(=O)[C@@H](NC(=O)[C@H](Cc1ccccc1)NC(=O)[C@@H](NC(=O)CNC(=O)[C@H](CCC(N)=O)NC(=O)C(C)(C)NC(=O)[C@@H](N)Cc1c[nH]cn1)[C@@H](C)O)[C@@H](C)O)C(C)C)C(=O)N[C@@H](CCC(=O)O)C(=O)NCC(=O)NCC(=O)N1CCC[C@H]1C(=O)N[C@@H](CO)C(=O)N[C@@H](CO)C(=O)NCC(N)=O [Compound 1],500 μL syringe Viscosity,[1],1.06 cP or mPa-s
same,Emax,Human Gcg-R,112 ± 3%
same,EC50,Human Gcg-R,7.21 ± 1.06 nM
same,EC50,"rat GLP-1-R; INS1 832-3 cells, cAMP, 30 minutes",26.1 nM
same,cAMP production,"rat GLP-1-R; INS1 832-3 cells, data not shown",increased cAMP production in a dose-dependent manner
same,Emax,"rat GLP-1-R; INS1, percent of maximal response with native GLP-1 peptide at 300 nM",112%
same,AUC(0-inf),[2]; individual animals,21.672 µM·h
same,CL/F,[2]; individual animals,2.31 mL/h/kg
same,Cmax,[2]; individual animals,253 nM
same,T1/2,"[2]; male cynomolgus monkeys, individual animals",47 h
same,Tmax,[2]; [3],12 h
same,AUC(0-inf),"[2]; male, cynomolgus monkey, plasma, sc, 50 nmol/kg, individual animals, read-out: AUC0-inf",24.9 µM·h
same,CL/F,"[2]; male, cynomolgus monkey, plasma, sc, 50 nmol/kg, individual animals, read-out: CL/F (converted)",2.01 mL/h/kg
same,Cmax,[2]; [3],236 nM
same,half-life,"[2]; male, cynomolgus monkey, plasma, sc, 50 nmol/kg, male cynomolgus monkeys, individual animals",67 h
same,Tmax,[2]; [4],~12 h
same,half-life,[2]; [4],57 h
same,AUC(0-inf),"[2]; male, cynomolgus monkey, plasma, sc, 50 nmol/kg, mean, read-out: AUC0-inf",23.3 µM·h
same,CL/F,"[2]; male, cynomolgus monkey, plasma, sc, 50 nmol/kg, mean, read-out: CL/F (converted)",2.16 mL/h/kg
same,Cmax,[2]; [4],244 nM
same,metabolic rate,"DIO mice (C57BL/6); DIO mice, chronic treatment",increased their metabolic rate starting from Week 2
same,Cumulative Heat (Kcal/kg lean mass/3 day),DIO mice (C57BL/6); Day 1 to Day 4,1749 ± 136 Kcal/kg lean mass/3 day
same,Cumulative Heat (Kcal/kg lean mass/3 day),DIO mice (C57BL/6); Day 4 to Day 7,1822 ± 173 Kcal/kg lean mass/3 day
same,Cumulative Heat (Kcal/kg lean mass/3 day),DIO mice (C57BL/6); Day 7 to Day 10,2349 ± 129 Kcal/kg lean mass/3 day
same,Cumulative Heat (Kcal/kg lean mass/3 day),DIO mice (C57BL/6); Day 10 to Day 13,2351 ± 144 Kcal/kg lean mass/3 day
same,Emax,hGcg-R; percent of maximal response with a Gcg analog conjugated to a saturated C18 fatty acid (diacid),100%
same,EC50,"hGcg-R; primary human hepatocytes, cAMP, 1 hour",99.9 nM
same,cAMP production,"hGcg-R; primary human hepatocytes, data not shown",increased cAMP production in a dose-dependent manner
CC(C)C[C@H](NC(=O)[C@H](CC(C)C)NC(=O)[C@H](Cc1c[nH]c2ccccc12)NC(=O)[C@H](CCC(=O)O)NC(=O)[C@@H](NC(=O)[C@H](Cc1ccccc1)NC(=O)[C@H](CCC(=O)O)NC(=O)[C@H](CCCCNC(=O)COCCOCCNC(=O)COCCOCCNC(=O)CC[C@H](NC(=O)CC[C@H](NC(=O)CCCCCCCCCCCCCCCCC(=O)O)C(=O)O)C(=O)O)NC(=O)[C@H](C)NC(=O)[C@H](CCCCN)NC(=O)[C@H](CCCCN)NC(=O)[C@H](CCC(=O)O)NC(=O)[C@H](CC(=O)O)NC(=O)[C@H](CC(C)C)NC(=O)[C@H](Cc1ccc(O)cc1)NC(=O)[C@H](CCCCN)NC(=O)[C@H](CO)NC(=O)[C@H](Cc1ccc(O)cc1)NC(=O)[C@H](CC(=O)O)NC(=O)[C@H](CO)NC(=O)[C@@H](NC(=O)[C@H](Cc1ccccc1)NC(=O)[C@@H](NC(=O)CNC(=O)[C@H](CCC(N)=O)NC(=O)C(C)(C)NC(=O)[C@@H](N)Cc1c[nH]cn1)[C@@H](C)O)[C@@H](C)O)C(C)C)C(=O)N[C@@H](CO)C(=O)NCC(=O)NCC(=O)N1CCC[C@H]1C(=O)N[C@@H](CO)C(=O)N[C@@H](CO)C(=O)NCC(N)=O [Compound 3] (H-H[Aib]QGTFTSDYSKYLDEKKAK([AEEA-AEEA-γGlu-γGlu-C18 diacid])EFVEWLLSGGPSSG-NH2; N-terminus assumed),500 μL syringe Viscosity,[1],1.03 cP or mPa-s
same,Emax,Human Gcg-R,104 ± 5%
same,EC50,Human Gcg-R,15.3 ± 2.2 nM

# Reference: US9938335B2, “Glucagon and GLP-1 co-agonist compounds” (Eli Lilly and Company, priority 2015, dated 2018)
